Laboratory results from patent US4698350A, “1-ethyl-6-fluoro-1,4-dihydro- 7-(2,6-dimethyl-4-pyridinyl)-4-oxo-3-quinolinecarboxylic acid and antibacterial use thereof” (Sterling Drug Inc., priority 1984, dated 1987).
In brackets after ≈: the same amount, converted by molar mass.

Assays:
Test in all cases: In vitro antibacterial MIC/MBC test
Assay type in all cases: cell-based
S. faecalis 4510 = settings: Enterococcus faecalis, S. faecalis 4510
Protocol: (§1) Win 52,522 and Win 35,439 were solubilized in 0.1 ml of 0.5 N NaOH/mg of compound and diluted in sterile distilled water to 160 mcg/ml. Vancomycin and methicillin were solubilized in sterile distilled water to 1250 mcg/ml of base compound. The stock solutions were sterilized by filtration through membrane filters with a 0.45 μm pore size.
(§2) The bacterial cultures listed in Table I (hereinbelow) were grown overnight at 37° C. in MHB for all cultures except the Streptococcus strains. These were grown in BHI+10% NHS. The overnight broth cultures were adjusted to an optical density of 0.10 (650 nm, B L Spectronic 20) in sterile distilled water and subsequently diluted to 6.7×10^6 cells/ml in MHB or BHI+1% NHS.
(§3) Serial two-fold dilutions of the compound solutions were prepared in MHB (or in BHI+1% NHS for tests with Streptococci) and dispensed into 96-well microtiter trays in a volume of 0.1 ml/well using a Sandy Springs (Bellco Glass Co.) dispenser. The trays were then inoculated with 0.0015 ml of a suspension containing 6.7×10^6 cells/ml of the appropriate inoculum using a MIC-2000 inoculator (Dynatech Corp.) resulting in a final inoculum of approximately 1×10^4 cells/well or 1×10^5 cells/ml. The trays were incubated at 37° C. for 18-20 hours and the minimal inhibitory concentration (MIC), defined as the lowest concentration of compound to inhibit visible bacterial growth, was recorded.
(§4) After the MIC values were recorded, the contents in the microtiter trays were thoroughly mixed on a Bellco Mini-orbital Shaker (Bellco Glass Co.) for 3 min. at a setting of 8. A portion (0.0015 ml) from each well was then transferred via an MIC-2000 inoculator to plates containing MHA or BHI agar+10% NHS. The plates were incubated at 37° C. for 18-20 hrs. The minimal bactericidal concentration (MBC), defined as the lowest concentration of compound that prevented the formation of a recognizable colony on the agar surface, was recorded.

S. aureus S-234 = settings: Staphylococcus aureus, S234, S. aureus S-234
Protocol: as §1, §2, §3, §4

S. aureus Glorgio = settings: Staphylococcus aureus, S. aureus Glorgio
Protocol: as §1, §2, §3, §4

S. aureus 41-81 = settings: Staphylococcus aureus, 4181, S. aureus 41-81
Protocol: as §1, §2, §3, §4

S. aureus 39881 = settings: Staphylococcus aureus, S. aureus 39881
Protocol: as §1, §2, §3, §4

S. aureus VA16951 = settings: Staphylococcus aureus, S. aureus VA16951
Protocol: as §1, §2, §3, §4

S. faecalis (11700) = settings: Enterococcus faecalis, ATCC11700, S. faecalis ATCC No. 11700
Protocol: as §1, §2, §3, §4

S. epidermidis 1-5-H = settings: Staphylococcus epidermidis, 15H, S. epidermidis 1-5-H
Protocol: as §1, §2, §3, §4

S. pyogenes 7948-15 = settings: Streptococcus pyogenes, 794815, S. pyogenes 7948-15
Protocol: as §1, §2, §3, §4

S. aureus S-500 = settings: Staphylococcus aureus, S500, S. aureus S-500
Protocol: as §1, §2, §3, §4

S. aureus 4-81 = settings: Staphylococcus aureus, 481, S. aureus 4-81
Protocol: as §1, §2, §3, §4

S. epidermidis (17917) = settings: Staphylococcus epidermidis, ATCC17917, S. epidermidis ATCC No. 17917
Protocol: as §1, §2, §3, §4

S. aureus 13-8-A = settings: Staphylococcus aureus, 138A, S. aureus 13-8-A
Protocol: as §1, §2, §3, §4

S. aureus 24-81 = settings: Staphylococcus aureus, 2481, S. aureus 24-81
Protocol: as §1, §2, §3, §4

S. epidermidis 1-3-H = settings: Staphylococcus epidermidis, 13H, S. epidermidis 1-3-H
Protocol: as §1, §2, §3, §4

S. pneumoniae Type III = test system: S. pneumoniae Type III
Protocol: as §1, §2, §3, §4

S. epidermidis (12228) = settings: Staphylococcus epidermidis, ATCC12228, S. epidermidis ATCC No. 12228
Protocol: as §1, §2, §3, §4

S. faecalis (8043) = settings: Enterococcus faecalis, ATCC8043, S. faecalis ATCC No. 8043
Protocol: as §1, §2, §3, §4

S. pyogenes (89) = settings: Streptococcus pyogenes, S. pyogenes SWRI No. 89
Protocol: as §1, §2, §3, §4

S. aureus 34-81 = settings: Staphylococcus aureus, 3481, S. aureus 34-81
Protocol: as §1, §2, §3, §4

S. aureus (25923) = settings: Staphylococcus aureus, ATCC25923, S. aureus ATCC No. 25923
Protocol: as §1, §2, §3, §4

`CCn1cc(C(=O)O)c(=O)c2cc(F)c(-c3cc(C)nc(C)c3)cc21` [Win 52,522, 1-ethyl-6-fluoro-1,4-dihydro-7-(2,6-dimethyl-4-pyridinyl)-4-oxo-3-quinolinecarboxylic acid] gave an MBC (S. faecalis 4510; read-out: MBC) of 0.125 µg/mL (≈ 0.367 µM), an MIC (S. faecalis 4510; read-out: MIC) of 0.125 µg/mL (≈ 0.367 µM) and an MBC (S. aureus S-234; read-out: MBC) of 0.03 µg/mL (≈ 0.0881 µM). The MIC (S. aureus S-234; read-out: MIC) was 0.015 µg/mL (≈ 0.0441 µM), the MBC (S. aureus Glorgio; read-out: MBC) was 0.015 µg/mL (≈ 0.0441 µM) and the MIC (S. aureus Glorgio; read-out: MIC) was less than 8 ng/mL. For the same compound, the MBC (S. aureus 41-81; read-out: MBC) was 0.015 µg/mL (≈ 0.0441 µM), the MIC (S. aureus 41-81; read-out: MIC) was 0.015 µg/mL (≈ 0.0441 µM) and the MBC (S. aureus 39881; read-out: MBC) was 0.03 µg/mL (≈ 0.0881 µM). It also gave an MIC (S. aureus 39881; read-out: MIC) of 0.015 µg/mL (≈ 0.0441 µM), an MBC (S. aureus VA16951; read-out: MBC) of 0.015 µg/mL (≈ 0.0441 µM) and an MIC (S. aureus VA16951; read-out: MIC) of 0.015 µg/mL (≈ 0.0441 µM). It also gave an MBC (S. faecalis (11700); read-out: MBC) of 0.25 µg/mL (≈ 0.735 µM), an MIC (S. faecalis (11700); read-out: MIC) of 0.25 µg/mL (≈ 0.735 µM) and an MBC (S. epidermidis 1-5-H; read-out: MBC) of 0.06 µg/mL (≈ 0.176 µM). For the same compound, the MIC (S. epidermidis 1-5-H; read-out: MIC) was 0.06 µg/mL (≈ 0.176 µM), the MBC (S. pyogenes 7948-15; read-out: MBC) was 0.5 µg/mL (≈ 1.47 µM) and the MIC (S. pyogenes 7948-15; read-out: MIC) was 0.5 µg/mL (≈ 1.47 µM). For the same compound, the MBC (S. aureus S-500; read-out: MBC) was 0.06 µg/mL (≈ 0.176 µM), the MIC (S. aureus S-500; read-out: MIC) was 0.03 µg/mL (≈ 0.0881 µM) and the MBC (S. aureus 4-81; read-out: MBC) was 0.03 µg/mL (≈ 0.0881 µM). The MIC (S. aureus 4-81; read-out: MIC) was 0.015 µg/mL (≈ 0.0441 µM), the MBC (S. epidermidis (17917); read-out: MBC) was 0.125 µg/mL (≈ 0.367 µM) and the MIC (S. epidermidis (17917); read-out: MIC) was 0.06 µg/mL (≈ 0.176 µM). For the same compound, the MBC (S. aureus 13-8-A; read-out: MBC) was 0.03 µg/mL (≈ 0.0881 µM), the MIC (S. aureus 13-8-A; read-out: MIC) was 0.03 µg/mL (≈ 0.0881 µM) and the MBC (S. aureus 24-81; read-out: MBC) was 0.03 µg/mL (≈ 0.0881 µM). For the same compound, the MIC (S. aureus 24-81; read-out: MIC) was 0.015 µg/mL (≈ 0.0441 µM), the MBC (S. epidermidis 1-3-H; read-out: MBC) was 0.06 µg/mL (≈ 0.176 µM) and the MIC (S. epidermidis 1-3-H; read-out: MIC) was 0.06 µg/mL (≈ 0.176 µM). The MBC (S. pneumoniae Type III; Streptococcus pneumoniae, S. pneumoniae Type III, read-out: MBC) was 0.5 µg/mL (≈ 1.47 µM), the MIC (S. pneumoniae Type III; Streptococcus pneumoniae, S. pneumoniae Type III, read-out: MIC) was 0.5 µg/mL (≈ 1.47 µM) and the “times less potent than vancomycin” value (S. pneumoniae Type III; in vitro, S. pneumoniae type III) was 8 times. It also gave an MBC (S. epidermidis (12228); read-out: MBC) of 0.06 µg/mL (≈ 0.176 µM), an MIC (S. epidermidis (12228); read-out: MIC) of 0.06 µg/mL (≈ 0.176 µM) and an MBC (S. faecalis (8043); read-out: MBC) of 0.5 µg/mL (≈ 1.47 µM). For the same compound, the MIC (S. faecalis (8043); read-out: MIC) was 0.25 µg/mL (≈ 0.735 µM), the MBC (S. pyogenes (89); read-out: MBC) was 0.5 µg/mL (≈ 1.47 µM) and the MIC (S. pyogenes (89); read-out: MIC) was 0.5 µg/mL (≈ 1.47 µM). For the same compound, the MBC (S. aureus 34-81; read-out: MBC) was 0.03 µg/mL (≈ 0.0881 µM), the MIC (S. aureus 34-81; read-out: MIC) was 0.03 µg/mL (≈ 0.0881 µM) and the MBC (S. aureus (25923); read-out: MBC) was 0.03 µg/mL (≈ 0.0881 µM). The MIC (S. aureus (25923); read-out: MIC) was 0.015 µg/mL (≈ 0.0441 µM).
